In patent US9115092B2, “Substituted quinazoline and pyrido-pyrimidine derivatives” (Asana Biosciences, LLC, priority 2010, dated 2015):

Tests used:
pAkt(5473), T47D cells = assay: In-cell Western assay, pAkt(5473) in T47D cells; assay type: cell-based; settings: Homo sapiens, T47D cell line, read-out: inhibition of pAkt(5473), IC50
BT474 cells = assay: XTT assay for cell viability, BT474 cells; assay type: cell-based; settings: Homo sapiens, BT-474, read-out: inhibition of cell proliferation, IC50
Protocol: (§1) Using a commercial kit from Sigma Aldrich (Catalog #X34251) and following its protocol, PC3 cells in the log phase of growth were employed and seeded at an optimal density of 1000 cell/well on to 96 well plates and incubated for 24 h followed by the addition of compounds of formula (I) in serial dilutions. Compound dilutions were made in DMSO. The cells were incubated with the compounds of formula (I) for 96 h and XTT tetrazolium dye (Sigma, USA) was subsequently added and incubated at 37° C. After the color formation, absorbance was measured at 465 nm in a Spectramax® Gemini spectrophotometer. EC50 values were calculated using a sigmoidal dose response curve fit in GraphPad Prism® v5 software. The tested compounds of formula (I) which caused inhibition of PC3 cell proliferation as determined by this assay protocol are shown in Table 2.
(§2) XTT assays for cell viability are also determined in BT474 cells and T47D cells, in a similar manner to the protocol described above.

T47D cells = assay: XTT assay for cell viability, T47D cells; assay type: cell-based; settings: Homo sapiens, read-out: inhibition of cell proliferation, IC50
Protocol: as §1, §2

pS6RP in BT474 tumor = assay: In vivo PK/PD study, BT474 tumor-bearing xenograft mice, pS6RP; settings: for suppression of pS6RP in tumor tissue samples by Western blot: 2 weeks at 40 mg/kg bid po
Protocol: (§3) PC3 cells were cultured at 37° C. in a 5% CO2 incubator using Hams F12 K medium. Ten million (10^7) cells were injected subcutaneously to the right flank region of athymic male mice (Harlan, age: 6-7 weeks, weight: about 20 g). Tumor bearing mice were randomized when the tumor volume reached about 250 mm^3 and three mice were used per each time point. Test compounds of formula (I) were formulated in 40% HPCD in 1×PBS, pH 7.4 and dosed orally at 50 mg/kg single dose (dose volume−10 mL/kg). Plasma and tumor samples were collected at 0 (vehicle control animals), 1, 4 and 24 hours post dosing. Blood was drawn (retro orbital) to a tube containing 0.2% EDTA for plasma collection. The tumor was excised from the mouse and immediately frozen in liquid nitrogen for PD analysis. Tumor and plasma drug concentrations were measured for PK analysis using LC-MS.
Snap frozen tumor samples were pulverized in a mortar (Belart) containing liquid nitrogen and tumor powder was stored at −80° C. until analysis. Pre coated ELISA kits (Cell Signaling Technology; pAKT(T308), CST#7135; pAKT(5473), CST#7134 and pS6RP, CST#7205) were used for PD analysis. Tumor powder was transferred to Eppendorf® tubes and lysis buffer (1 mL) was added to the powder. Protease and phosphatase inhibitors (SIGMA) and phenylmethanesulfonylfluoride (PMSF) were added to tumor powder and mixed by vortexing followed by sonication (15 sec). Samples were kept on an ice bath for 30 min. Supernatant was separated after centrifugation at 10,000 rpm for 20 min at 4° C. Supernatant was re-centrifuged and fresh supernatant was aliquoted to different tubes. Total protein was estimated using a BCA kit (Thermo Scientific) and 50 μg total protein was loaded to each well. […] The detection for pAKT was based on chemiluminescence and pS6RP was based on absorbance. […]
In vivo pharmacokinetic/pharmacodynamic (PK/PD) studies were also carried out using BT474 tumor cells and the corresponding tumor-bearing xenograft mice, and compounds of the invention were determined to be active in this assay. […]

pAKT(T308) in PC3 tumor = assay: In vivo PK/PD study, PC3 tumor bearing mice, pAkt(T308) Western blot; settings: 50 mg/kg po, at 8 hours
Protocol: as §3
Snap frozen tumor samples were pulverized in a mortar (Belart) containing liquid nitrogen and tumor powder was stored at −80° C. until analysis. Pre coated ELISA kits (Cell Signaling Technology; pAKT(T308), CST#7135; pAKT(5473), CST#7134 and pS6RP, CST#7205) were used for PD analysis. Tumor powder was transferred to Eppendorf® tubes and lysis buffer (1 mL) was added to the powder. […] The detection for pAKT was based on chemiluminescence and pS6RP was based on absorbance. […]

Compound | suppression of pS6RP in tumor tissue samples by Western blot (pS6RP in BT474 tumor) | suppression of pAkt(T308) by Western blot analysis (pAKT(T308) in PC3 tumor) | also measured
CN(C)C(=O)c1ccc(NC(=O)Nc2ccc(-c3nc(N4CCOCC4)c4ccc(-c5cncnc5)cc4n3)cc2)cc1 [Example 1, N,N-Dimethyl-4-(3-{4-[4-morpholin-4-yl-7-pyrimidin-5-yl-quinazolin-2-yl)-phenyl]-ureido}-benzamide] | – | – | IC50 (pAkt(5473), T47D cells): < 300 nM; IC50 (BT474 cells): < 100 nM; IC50 (T47D cells): < 100 nM
Cc1ccc(-c2ccc3c(N4CCOCC4)nc(-c4ccc(NC(=O)Nc5ccc(C(=O)N(C)C)cc5)cc4)nc3c2)o1 [Example 2, N,N-Dimethyl-4-(3-{4-[7-(5-methyl-furan-2-yl)-4-morpholin-4-yl-quinazolin-2-yl]-phenyl}-ureido)-benzamide] | significant suppression | – | –
CN(C)C(=O)c1ccc(NC(=O)Nc2ccc(-c3nc(N4CCOCC4)c4ccc(-c5ccco5)cc4n3)cc2)cc1 [Example 51, 4-{3-[4-(7-furan-2-yl-4-morpholin-4-yl-quinazolin-2-yl)-phenyl]-ureido}-N,N-dimethyl-benzamide] | significant suppression | – | inhibition at 30 mg/kg (pS6RP in BT474 tumor; Mus musculus, BT-474, 30 mg/kg po, at 4 and 24 hours): 30 to 40%
CN(C)C(=O)c1ccc(NC(=O)Nc2ccc(-c3nc(N4CCOCC4)c4ccc(-c5cncnc5)cc4n3)cc2)c(F)c1 [Example 133, 3-fluoro-N,N-dimethyl-4-(3-(4-(4-morpholino-7-(pyrimidin-5-yl)quinazolin-2-yl)phenyl)ureido)-benzamide] | – | significant suppression | –
CN(C)C(=O)c1ccc(NC(=O)Nc2ccc(-c3nc(N4CCOCC4)c4ccc(-c5cccnc5F)cc4n3)cc2)c(F)c1 [Example 146, 3-fluoro-4-(3-(4-(7-(2-fluoropyridin-3-yl)-4-morpholino-quinazolin-2-yl)phenyl)ureido)-N,N-dimethyl-benzamide] | – | significant suppression | –
